Consider six compounds from patent US20250345317A1, “New pharmaceutical compounds, methods and uses thereof” (BBIT-THERAPEUTICS, LDA., priority 2020, published 2025).

pIC50: −log10 of the molar value.

Assay type in all cases: cell-based, human
In assay [1] the test system is T47D. In words: Growth inhibition, SRB assay, T47D. The conditions noted are these: BRCA1 wild-type, 48 hours (second Table 2). The source says: (§1) Table 2 refers to the growth inhibitory effect of COMP, olaparib and cisplatin (CDDP) in a panel of human immortalized breast (T47D, MCF-7, MDA-MB-231, MDA-MB-468, SK-BR-3 and HCC1937), ovarian and endocervical (OCVAR, SKOV-3, […],IGROV-1 and HeLa), pancreatic (PANC-1 and MIAPACA), neuroblastoma (SHSY-5Y), lung (NCI-H460), prostate (VCaP) melanoma (A375 and SK-MEL-5) and glioblastoma (SF-208) cancer cells, immortalized normal MCF10a and HFF1 human cells, and patient-derived ovarian (PD-OVCA #1, #9, #41, #49 and #62) cancer cells. […] Data are mean±SEM (n=5).
(§2) In an embodiment, IC50 values were determined by Sulforhodamine B (SRB) or MTS [3-(4,5-dimethylthiazol-2-yl)-5-(3-carboxymethoxyphenyl)-2-(4-sulfophenyl)-2H-tetrazolium] assay in immortalized and PD-OVCA cells, respectively. Cancer cells were plated in 96-well plates and incubated for 24 hours. Cells were then exposed to serial dilutions of compounds for 48 hours. The solvent DMSO corresponding to the maximum concentration used in these assays (0.025%) was included as control. Results are the mean±S.E.M. of 3-5 independent experiments.
For orientation: The SRB assay estimates cell density from bound dye.

For assay [2], the system named is HFF-1. In words: Growth inhibition, SRB assay, normal HFF-1 cells. The settings on record: HFF1 normal cells, 48 hours (second Table 2).
Source text: as §1, §2

The test system of assay [3] is MDA-MB-468. In words: Growth inhibition, SRB assay, MDA-MB-468. The settings on record: MDA-MB-468, BRCA1 loss of heterozygosity, 48 hours (second Table 2).
Source text: as §1, §2

Assay [4] deals with MCF-7. In words: Growth inhibition, SRB assay, MCF-7. The settings on record: MCF-7, BRCA1 wild-type, 48 hours (second Table 2).
Source text: as §1, §2

In assay [5] the test system is HCC1937 (5382insC). The assay is described as follows: Growth inhibition, SRB assay, HCC1937. The conditions noted are these: HCC1937, BRCA1 mutant, 48 hours (second Table 2).
Source text: as §1, §2

The subject of assay [6] is SK-BR-3. In words: Growth inhibition, SRB assay, SK-BR-3. The settings on record: SK-BR-3, BRCA1 loss of heterozygosity, 48 hours (second Table 2).
Source text: as §1, §2

The subject of assay [7] is SKOV-3. In words: Growth inhibition, SRB assay, SKOV-3. The settings on record: Skov-3, BRCA1 wild-type, 48 hours (second Table 2).
Source text: as §1, §2

The subject of assay [8] is MDA-MB-231. The assay is described as follows: Growth inhibition, SRB assay, MDA-MB-231. The settings on record: MDA-MB-231, BRCA1 loss of heterozygosity, 48 hours (second Table 2).
Source text: as §1, §2

Assay [9] deals with OVCAR-3. In words: Growth inhibition, SRB assay, OVCAR-3. The settings on record: OVCAR-3, BRCA1 wild-type, 48 hours (second Table 2).
Source text: as §1, §2

In assay [10] the test system is IGROV-1 (mutBRCA1 280delA; mutBRCA2 3320del1). The assay is described as follows: Growth inhibition, SRB assay, IGROV-1. The settings on record: Igrov-1, BRCA1 mutant, 48 hours (second Table 2).
Source text: as §1, §2

Regarding `CCC1CN(C)[C@H]2Cc3c([nH]c4ccccc34)/C(=N/N)C[C@H]1[C@@H]2C(=O)OC` (stereo partly drawn) [DH1], the negative logarithm of the IC50 (pIC50) was less than 4.30 in assay [1] (Homo sapiens, 48 h); less than 4.30 in [2] (Homo sapiens, HFF-1, 48 h); less than 4.30 in [3] (Homo sapiens, MDA-MB-468, 48 h); less than 4.30 in [4] (Homo sapiens, MCF7, 48 h); 4.49 in assay [5] (Homo sapiens, HCC1937, 48 h); less than 4.30 in [6] (Homo sapiens, SK-BR-3, 48 h). In addition, the pIC50 in [7] (Homo sapiens, SK-OV-3, 48 h) is less than 4.30; in [8] (Homo sapiens, MDA-MB-231, 48 h), less than 4.30; in assay [9] (Homo sapiens, OVCAR-3, 48 h), less than 4.30; in assay [10] (Homo sapiens, IGROV-1, 48 h) it was 4.59.

For `CCC1CN(C)[C@H]2Cc3c([nH]c4ccccc34)/C(=N/Nc3cnccn3)C[C@H]1[C@@H]2C(=O)OC` (stereo partly drawn) [DH3], the pIC50 in assay [1] (Homo sapiens, 48 h) is less than 4.30; in assay [2] (Homo sapiens, HFF-1, 48 h), 4.58; in [3] (Homo sapiens, MDA-MB-468, 48 h), 4.40; in [4] (Homo sapiens, MCF7, 48 h) it was less than 4.30; in [5] (Homo sapiens, HCC1937, 48 h), less than 4.30; in assay [6] (Homo sapiens, SK-BR-3, 48 h), less than 4.30. The pIC50 in assay [7] (Homo sapiens, SK-OV-3, 48 h) is 4.56; in assay [8] (Homo sapiens, MDA-MB-231, 48 h) it was 4.31; in assay [9] (Homo sapiens, OVCAR-3, 48 h), less than 4.30; in assay [10] (Homo sapiens, IGROV-1, 48 h) it was 4.61.

With `CCC1CN(C)[C@H]2Cc3c([nH]c4ccccc34)/C(=N/Nc3ccccc3)C[C@H]1[C@@H]2C(=O)OC` (stereo partly drawn) [TH2], the negative logarithm of the IC50 (pIC50) in assay [1] was 4.65; in assay [2], 4.71; in assay [3], 4.94; in assay [4], 4.59; in assay [5], 4.59; in assay [6] it was 4.84. Moreover, the pIC50 in [7] was 4.63; in assay [8], 4.72; in assay [9] it was 4.87; in assay [10], 5.01.

For `CCC1CN(C)[C@H]2Cc3c([nH]c4ccccc34)C(=S)C[C@H]1C2C(=O)OC` (stereo partly drawn) [DTHIO], the pIC50 in assay [1] (Homo sapiens, 48 h) is less than 4.30; in assay [2] (Homo sapiens, HFF-1, 48 h) it was less than 4.30; in [3] (Homo sapiens, MDA-MB-468, 48 h) it was less than 4.30; in assay [4] (Homo sapiens, MCF7, 48 h), less than 4.30; in assay [5] (Homo sapiens, HCC1937, 48 h), less than 4.30; in assay [6] (Homo sapiens, SK-BR-3, 48 h), less than 4.30. For the same compound, the pIC50 is less than 4.30 in assay [7] (Homo sapiens, SK-OV-3, 48 h); less than 4.30 in assay [8] (Homo sapiens, MDA-MB-231, 48 h); less than 4.30 in assay [9] (Homo sapiens, OVCAR-3, 48 h); less than 4.30 in assay [10] (Homo sapiens, IGROV-1, 48 h).

For the compound `C/C=C/C(=O)O[C@@H]1C[C@@H]2[C@@H](CC)CN(C)C(Cc3c1[nH]c1ccccc31)[C@H]2C(=O)OC` [DE1], the pIC50 was less than 4.30 in assay [1] (Homo sapiens, 48 h); less than 4.30 in [2] (Homo sapiens, HFF-1, 48 h); less than 4.30 in assay [3] (Homo sapiens, MDA-MB-468, 48 h); less than 4.30 in assay [4] (Homo sapiens, MCF7, 48 h); less than 4.30 in assay [5] (Homo sapiens, HCC1937, 48 h); less than 4.30 in assay [6] (Homo sapiens, SK-BR-3, 48 h). Also, the pIC50 in [7] (Homo sapiens, SK-OV-3, 48 h) was less than 4.30; in assay [8] (Homo sapiens, MDA-MB-231, 48 h), less than 4.30; in assay [9] (Homo sapiens, OVCAR-3, 48 h), less than 4.30; in assay [10] (Homo sapiens, IGROV-1, 48 h), less than 4.30.

On to `CCC1CN(C)[C@H]2Cc3c([nH]c4ccccc34)C(O)C[C@H]1C2C(=O)OC` (stereo partly drawn) [DOH], for which the pIC50 is less than 4.30 in [1] (Homo sapiens, 48 h); less than 4.30 in assay [2] (Homo sapiens, HFF-1, 48 h); less than 4.30 in assay [3] (Homo sapiens, MDA-MB-468, 48 h); less than 4.30 in [4] (Homo sapiens, MCF7, 48 h); less than 4.30 in assay [5] (Homo sapiens, HCC1937, 48 h); less than 4.30 in [6] (Homo sapiens, SK-BR-3, 48 h). The pIC50 in assay [7] (Homo sapiens, SK-OV-3, 48 h) is less than 4.30; in assay [8] (Homo sapiens, MDA-MB-231, 48 h), less than 4.30; in [9] (Homo sapiens, OVCAR-3, 48 h) it was less than 4.30; in assay [10] (Homo sapiens, IGROV-1, 48 h), less than 4.30.

By pIC50 is commonly meant −log10 of the IC50, conventionally taken in molar units. High values mean a small IC50, low ones a large IC50.
